# According to US12252484B2, “Pyrazolopyridine compounds for the treatment of autoimmune disease” (Hoffmann-La Roche Inc., priority 2018, dated 2025):
# Where two headings read alike, the source gives them in different places.
# Biological target: T1, human TLR7 (Homo sapiens, UniProt Q9NYK1)
# T1 sequence (Q9NYK1 27-1049): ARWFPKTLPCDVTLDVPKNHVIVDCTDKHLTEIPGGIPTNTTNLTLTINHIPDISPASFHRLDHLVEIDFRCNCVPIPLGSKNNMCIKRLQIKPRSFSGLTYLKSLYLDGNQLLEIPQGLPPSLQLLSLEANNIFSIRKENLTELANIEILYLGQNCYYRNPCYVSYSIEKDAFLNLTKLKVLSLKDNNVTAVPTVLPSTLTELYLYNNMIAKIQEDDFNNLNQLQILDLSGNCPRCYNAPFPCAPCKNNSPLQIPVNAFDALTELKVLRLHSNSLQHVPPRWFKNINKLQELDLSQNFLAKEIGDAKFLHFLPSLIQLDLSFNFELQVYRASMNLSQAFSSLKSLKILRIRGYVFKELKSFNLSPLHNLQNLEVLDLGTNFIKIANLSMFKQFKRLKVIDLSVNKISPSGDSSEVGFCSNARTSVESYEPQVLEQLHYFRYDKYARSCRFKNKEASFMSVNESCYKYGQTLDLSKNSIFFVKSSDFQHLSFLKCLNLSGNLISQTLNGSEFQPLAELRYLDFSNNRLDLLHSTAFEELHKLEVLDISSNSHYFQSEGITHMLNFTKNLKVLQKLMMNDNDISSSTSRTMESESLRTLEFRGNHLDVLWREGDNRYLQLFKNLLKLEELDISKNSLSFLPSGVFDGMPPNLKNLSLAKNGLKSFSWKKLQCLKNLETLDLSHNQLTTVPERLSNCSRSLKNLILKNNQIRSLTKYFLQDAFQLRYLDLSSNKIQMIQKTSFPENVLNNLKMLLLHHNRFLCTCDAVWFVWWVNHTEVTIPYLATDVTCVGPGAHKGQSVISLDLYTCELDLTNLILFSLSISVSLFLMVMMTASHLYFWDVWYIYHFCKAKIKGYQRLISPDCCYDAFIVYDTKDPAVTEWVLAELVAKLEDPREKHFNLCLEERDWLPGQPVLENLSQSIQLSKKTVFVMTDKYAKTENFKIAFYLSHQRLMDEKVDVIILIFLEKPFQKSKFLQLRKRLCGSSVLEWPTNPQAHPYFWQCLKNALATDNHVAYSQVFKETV
# Test: HEK293-Blue-hTLR-7 cells assay (SEAP reporter, R848 stimulation)
# Assay type: cell-based
# Description: The following tests were carried out in order to determine the activity of the compounds of formula (I) in HEK293-Blue-hTLR-7/8/9 cells assay.
# HEK293-Blue-hTLR-7 Cells Assay:
# A stable HEK293-Blue-hTLR-7 cell line was purchased from InvivoGen (Cat. #: hkb-htlr7, San Diego, California, USA). These cells were originally designed for studying the stimulation of human TLR7 by monitoring the activation of NF-κB. A SEAP (secreted embryonic alkaline phosphatase) reporter gene was placed under the control of the IFN-β minimal promoter fused to five NF-κB and AP-1-binding sites. The SEAP was induced by activating NF-κB and AP-1 via stimulating HEK-Blue hTLR7 cells with TLR7 ligands. Therefore the reporter expression was declined by TLR7 antagonist under the stimulation of a ligand, such as R848 (Resiquimod), for incubation of 20 hrs. The cell culture supernatant SEAP reporter activity was determined using QUANTI-Blue™ kit (Cat. #: rep-qb1, Invivogen, San Diego, Ca, USA) at a wavelength of 640 nm, a detection medium that turns purple or blue in the presence of alkaline phosphatase.
# HEK293-Blue-hTLR7 cells were incubated at a density of 250,000˜450,000 cells/mL in a volume of 170 μL in a 96-well plate in Dulbecco's Modified Eagle's medium (DMEM) containing 4.5 g/L glucose, 50 U/mL penicillin, […], […], 2 mM L-glutamine, 10% (v/v) heat-inactivated fetal bovine serum with addition of 20 μL test compound in a serial dilution in the presence of final DMSO at 1% and 10 μL of 20 uM R848 in above DMEM, perform incubation under 37° C. in a CO2 incubator for 20 hrs. Then 20 μL of the supernatant from each well was incubated with 180 μL Quanti-blue substrate solution at 37° C. for 2 hrs and the absorbance was read at 620˜655 nm using a spectrophotometer. The signalling pathway that TLR7 activation leads to downstream NF-κB activation has been widely accepted, and therefore similar reporter assay was modified for evaluating TLR7 antagonist.
# [1] = HEK293-Blue-hTLR-7 cells, R848 ligand, 20 hrs incubation, read-out: TLR7 IC50
Structure (SMILES),IC50 [1] [nM],IC50 [nM]
"C[C@@H]1CN(c2ccc(C#N)n3nccc23)C[C@H](C(=O)NC2CCCNCC2)O1 (stereo partly drawn) [Example 6, (2R,6R)-N-(azepan-4-yl)-4-(7-cyanopyrazolo[1,5-a]pyridin-4-yl)-6-methyl-morpholine-2-carboxamide]",16,
"C[C@@H]1CN(c2ccc(C#N)n3nccc23)C[C@H](C(=O)NC2CC3COCC(C2)N3)O1 (stereo partly drawn) [Example 22, Endo-(2R,6R)-4-(7-cyanopyrazolo[1,5-a]pyridin-4-yl)-6-methyl-N-[3-oxa-9-azabicyclo[3.3.1]nonan-7-yl]morpholine-2-carboxamide]",10,
"C[C@@H]1CN(c2ccc(C#N)n3nccc23)C[C@H](C(=O)N[C@H]2CNC[C@H]2F)O1 [Example 2, (2R,6R)-4-(7-cyanopyrazolo[1,5-a]pyridin-4-yl)-N-[(3S,4R)-4-fluoropyrrolidin-3-yl]-6-methyl-morpholine-2-carboxamide]",91,
"C[C@@H]1CN(c2ccc(C#N)n3nccc23)C[C@H](C(=O)NC2CCNC2)O1 (stereo partly drawn) [Example 25, (2R,6R)-4-(7-cyanopyrazolo[1,5-a]pyridin-4-yl)-6-methyl-N-pyrrolidin-3-yl-morpholine-2-carboxamide]",150,
"C[C@@H]1CN(c2ccc(C#N)n3nccc23)C[C@H](C(=O)NC2CNC[C@H]2F)O1 (stereo partly drawn) [Example 5, Cis-(2R,6R)-4-(7-cyanopyrazolo[1,5-a]pyridin-4-yl)-6-methyl-N-(4-fluoropyrrolidin-3-yl) morpholine-2-carboxamide]",73,
"C[C@@H]1CN(c2ccc(C#N)n3nccc23)C[C@H](C(=O)NC23CC(CO)(C2)C3)O1 [Example 15, (2R,6R)-4-(7-cyanopyrazolo[1,5-a]pyridin-4-yl)-N-[3-(hydroxymethyl)-1-bicyclo[1.1.1]pentanyl]-6-methyl-morpholine-2-carboxamide]",220,
"C[C@H]1C[C@@H](NCC#N)CN(c2ccc(C#N)n3nccc23)C1 [Example 46, 4-[(3R,5S)-3-(cyanomethylamino)-5-methyl-1-piperidyl]pyrazolo[1,5-a]pyridine-7-carbonitrile]",170,
"C[C@@H]1CN(c2ccc(C#N)n3nccc23)C[C@H](C(=O)NCC(C)(C)CN)O1 [Example 39, (2R,6R)-N-(3-amino-2,2-dimethyl-propyl)-4-(7-cyanopyrazolo[1,5-a]pyridin-4-yl)-6-methyl-morpholine-2-carboxamide]",30,
"C[C@@H]1CN(c2ccc(C#N)n3nccc23)C[C@H](C(=O)NC2CC3CCCC(C2)N3C)O1 (stereo partly drawn) [Example 35, (2R,6R)-4-(7-cyanopyrazolo[1,5-a]pyridin-4-yl)-6-methyl-N-(9-methyl-9-azabicyclo[3.3.1]nonan-3-yl)morpholine-2-carboxamide]",,4
"C[C@@H]1CN(c2ccc(C#N)n3nccc23)C[C@H](C(=O)NC2C3CCC2CNC3)O1 (stereo partly drawn) [Example 26, (2R,6R)-N-(3-azabicyclo[3.2.1]octan-8-yl)-4-(7-cyanopyrazolo[1,5-a]pyridin-4-yl)-6-methyl-morpholine-2-carboxamide]",20,
"C[C@@H]1CN(c2ccc(C#N)n3nccc23)C[C@H](C(=O)Nc2ccc(C(=O)N3CCNCC3)cc2)O1 [Example 42, (2R,6R)-4-(7-cyanopyrazolo[1,5-a]pyridin-4-yl)-6-methyl-N-[4-(piperazine-1-carbonyl)phenyl]morpholine-2-carboxamide]",12,
"C[C@@H]1CN(c2ccc(C#N)n3nccc23)C[C@H](C(=O)NC2CC3(CNC3)C2)O1 [Example 3, (2R,6R)-N-(2-azaspiro[3.3]heptan-6-yl)-4-(7-cyanopyrazolo[1,5-a]pyridin-4-yl)-6-methyl-morpholine-2-carboxamide]",160,
"C[C@@H]1CN(c2ccc(C#N)n3nccc23)C[C@H](C(=O)NC2CC3CCC(C2)N3C)O1 (stereo partly drawn) [Example 33, (2R,6R)-4-(7-cyanopyrazolo[1,5-a]pyridin-4-yl)-6-methyl-N-(8-methyl-8-azabicyclo[3.2.1]octan-3-yl)morpholine-2-carboxamide]",4,
"C[C@@H]1CN(c2ccc(C#N)n3nccc23)C[C@H](C(=O)N2CC(N)C2)O1 [Example 8, 4-[(2R,6R)-2-(3-aminoazetidine-1-carbonyl)-6-methyl-morpholin-4-yl]pyrazolo[1,5a]pyridine-7-carbonitrile]",190,
"C[C@@H]1CN(c2ccc(C#N)n3nccc23)C[C@H](C(=O)NCC2CN(C)CCO2)O1 (stereo partly drawn) [Example 7, (2R,6R)-4-(7-cyanopyrazolo[1,5-a]pyridin-4-yl)-6-methyl-N-[(4-methylmorpholin-2-yl)methyl]morpholine-2-carboxamide]",67,
"C[C@@H]1CN(c2ccc(C#N)n3nccc23)C[C@H](C(=O)NC2CCNCC2)O1 [Example 24, (2R,6R)-4-(7-cyanopyrazolo[1,5-a]pyridin-4-yl)-6-methyl-N-(4-piperidyl)morpholine-2-carboxamide]",43,

# Further lines, with some results ahead:
IC50 [1] [nM],Structure (SMILES),IC50 [nM]
650,"COCCNC(=O)[C@H]1CN(c2ccc(C#N)n3nccc23)C[C@@H](C)O1 [Example 9, (2R,6R)-4-(7-cyanopyrazolo[1,5-a]pyridin-4-yl)-N-(2-methoxyethyl)-6-methyl-morpholine-2-carboxamide]",
50,"C[C@@H]1CN(c2ccc(C#N)n3nccc23)C[C@H](C(=O)NC2C3CNC[C@@H]32)O1 (stereo partly drawn) [Example 31, Trans-(2R,6R)-N-(3-azabicyclo[3.1.0]hexan-6-yl)-4-(7-cyanopyrazolo[1,5-a]pyridin-4-yl)-6-methyl-morpholine-2-carboxamide]",
210,"C[C@@H]1CN(c2ccc(C#N)n3nccc23)C[C@H](C(=O)NCC2CCNC2)O1 (stereo partly drawn) [Example 40, (2R,6R)-4-(7-cyanopyrazolo[1,5-a]pyridin-4-yl)-6-methyl-N-(pyrrolidin-3-ylmethyl)morpholine-2-carboxamide]",
410,"C[C@@H]1CN(c2ccc(C#N)n3nccc23)C[C@H](C(=O)NC2CCOCC2)O1 [Example 4, (2R,6R)-4-(7-cyanopyrazolo[1,5-a]pyridin-4-yl)-6-methyl-N-tetrahydropyran-4-yl-morpholine-2-carboxamide]",
55,"C[C@@H]1CN(c2ccc(C#N)n3nccc23)C[C@H](C(=O)NCC2CNCC2(F)F)O1 (stereo partly drawn) [Example 18, (2R,6R)-4-(7-cyanopyrazolo[1,5-a]pyridin-4-yl)-N-[(4,4-difluoropyrrolidin-3-yl)methyl]-6-methyl-morpholine-2-carboxamide]",
31,"C[C@@H]1CN(c2ccc(C#N)n3nccc23)C[C@H](C(=O)NC2CN(C)CC23CC3)O1 (stereo partly drawn) [Example 32, (2R,6R)-4-(7-cyanopyrazolo[1,5-a]pyridin-4-yl)-6-methyl-N-(5-methyl-5-azaspiro[2.4]heptan-7-yl)morpholine-2-carboxamide]",
320,"C[C@@H]1CN(c2ccc(C#N)n3nccc23)C[C@H](C(=O)N2CCC3(CCNCC3)CC2)O1 [Example 28, 4-[(2R,6R)-2-(3,9-diazaspiro[5.5]undecane-3-carbonyl)-6-methyl-morpholin-4-yl]pyrazolo[1,5a]pyridine-7-carbonitrile]",
27,"C[C@@H]1CN(c2ccc(C#N)n3nccc23)C[C@H](C(=O)NC2CC3CCC(C2)N3)O1 (stereo partly drawn) [Example 23, Exo-(2R,6R)-N-[8-azabicyclo[3.2.1]octan-3-yl]-4-(7-cyanopyrazolo[1,5-a]pyridin-4-yl)-6-methyl-morpholine-2-carboxamide]",
